# Results as given in US20240360154A1, “AROYL SUBSTITUTED TRICYCLIC COMPOUND, PREPARATION METHOD THEREFOR AND USE THEREOF” (GENFLEET THERAPEUTICS (SHANGHAI) INC., priority 2020, published 2024).
# Legend:
# [1] = biological target: BTK (Homo sapiens (Human), UniProt Q06187); assay: BTK enzyme experiment (ADP-Glo kinase assay); format: biochemical; settings: 10 nM BTK, ATP 125 μM, Poly(Glu4, Tyr1), 90 minutes at 20° C.; read-out: BTK(WT) IC50
# Procedure: (§1) A 3-fold gradient concentration stock solution of 1000× compound was prepared using DMSO and diluted 100-fold to 10× compound stock solution using reaction buffer (50 mM HEPES, pH 7.5, 0.0015% Briji-35, 2 mM DTT, 10 mM MgCl2), and the 10× compound stock solution was transferred to a 384-well plate. Enzyme reactions were set up with BTK Kinase Enzyme System (Promega Catalog #V2941) or BTK (C481S) Kinase Enzyme System (Promega Catalog #VA7033). First, a 2× enzyme solution containing 10 nM BTK or 10 nM BTK C481S was prepared with reaction buffer and added to the plate, and incubated with the compound for 10 minutes. […] Finally, the kinase activity was detected according to the experimental steps provided by ADP-Glo™ kinase Assay Kit (Promega, #V9101), and finally the luminescence chemiluminescence value was read. DMSO was used as the maximum signal value, and adding no enzyme was used as the minimum signal value. The inhibition rate of the compound (%)=(maximum signal value−compound signal value)/(maximum signal value−minimum signal value)×100% was calculated. The compound gradient dilution concentration and the corresponding inhibition rate of the enzyme activity were fit by using XLFit four-parameter method, and IC50 value was calculated.
# [2] = biological target: BTK (C481S) (Homo sapiens (Human), UniProt Q06187, C481S); assay: BTK C481S enzyme experiment (ADP-Glo kinase assay); format: biochemical; settings: 10 nM BTK C481S, ATP 125 μM, Poly(Glu4, Tyr1), 90 minutes at 20° C.
# Procedure: as §1
# [3] = test system: TMD-8 cells; assay: TMD-8 proliferation inhibition experiment; format: cell-based; settings: human diffuse large B lymphoma cells, three days incubation
# Procedure: TMD-8 cells are human diffuse large B lymphoma (Mingzhou Bio, MZ-0832), cultured in 10% FBS+1% PS 1640 medium; OCI-LY10 is human diffuse large B lymphoma (BeNa Culture Collection, BNCC337742), cultured in 10% FBS+1% PS IMDM. Day 1: Cells at logarithmic growth phase were taken, counted and inoculated 600 TMD-8 or 2000 OCI-LY10 cells in a 384-well cell culture plate and cultured overnight. Day 2: A 3-fold gradient concentration stock solution of 400× compound was prepared with DMSO, and diluted 40-fold to a 10× compound stock solution with culture medium. The 10× compound stock solution was added to each cell culture well with a final concentration of 1× compound stock solution and a DMSO content of 0.25%. DMSO was used as experimental control, and culture medium was used as blank control. The incubation was continued for three days after compound addition. On the fifth day, 25 μL of […] was added to each well, mixed well and incubated for 10 minutes, then the chemiluminescence value (RLU value) was read. The cell proliferation inhibition rate (%)=(RLUcontrol−RLUcompound)/(RLUcontrol−RLUblank)×100% was calculated. The compound gradient dilution concentration and the corresponding cell proliferation inhibition rate were fit by using XLFit four-parameter method, and IC50 value was calculated.
# Sequence of BTK (Q06187 whole entry): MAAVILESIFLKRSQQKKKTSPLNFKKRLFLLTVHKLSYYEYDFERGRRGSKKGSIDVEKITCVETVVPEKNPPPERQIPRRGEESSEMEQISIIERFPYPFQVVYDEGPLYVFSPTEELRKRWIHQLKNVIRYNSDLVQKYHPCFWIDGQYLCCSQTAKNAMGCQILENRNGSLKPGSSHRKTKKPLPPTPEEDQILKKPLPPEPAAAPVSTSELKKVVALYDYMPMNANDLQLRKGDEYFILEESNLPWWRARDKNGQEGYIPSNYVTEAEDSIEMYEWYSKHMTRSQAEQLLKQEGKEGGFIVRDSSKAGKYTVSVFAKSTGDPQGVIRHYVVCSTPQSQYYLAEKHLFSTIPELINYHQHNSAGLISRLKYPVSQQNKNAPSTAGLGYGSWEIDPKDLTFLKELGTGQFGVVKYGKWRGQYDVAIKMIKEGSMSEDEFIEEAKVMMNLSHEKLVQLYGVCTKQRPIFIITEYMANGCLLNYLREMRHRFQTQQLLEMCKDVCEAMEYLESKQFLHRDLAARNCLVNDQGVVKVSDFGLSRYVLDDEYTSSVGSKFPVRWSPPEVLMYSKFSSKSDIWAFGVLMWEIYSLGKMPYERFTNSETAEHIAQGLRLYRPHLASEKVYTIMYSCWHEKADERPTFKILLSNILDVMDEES
# Sequence of BTK (C481S) (Q06187 whole entry C481S): as the sequence (Q06187 whole entry) above, with C481S counted along it
SMILES,IC50 [1],IC50 [2],IC50 [3],"IC50 ([3]; Homo sapiens, TMD8, 72 h)"
"O=C(c1ccc(Oc2ccccc2)cc1Cl)c1c[nH]c2ncc3c(c12)N[C@@]1(CCOC1)C(=O)N3 (single isomer, unassigned) [Z1-1]",67.1 nM,23.6 nM,183 nM,
"O=C(c1ccc(Oc2ccccc2)cc1Cl)c1c[nH]c2ncc3c(c12)N[C@]1(CCOC1)C(=O)N3 (single isomer, unassigned) [Z1-2]",64.7 nM,27.2 nM,232 nM,
"CC(=O)N1CC[C@@]2(C1)Nc1c(cnc3[nH]cc(C(=O)c4ccc(Oc5ccccc5)cc4Cl)c13)NC2=O (single isomer, unassigned) [Z4-2]",46.1 nM,19.8 nM,1200 nM,
"C[C@]1(CO)Nc2c(cnc3[nH]cc(C(=O)c4ccc(Oc5ccccc5)cc4Cl)c23)NC1=O (single isomer, unassigned) [Z9-1]",20 nM,20 nM,389 nM,
"O=C(c1ccc(Oc2ccccc2)cc1Cl)c1c[nH]c2ncc3c(c12)N[C@@]1(CC[C@H](O)C1)C(=O)N3 (single isomer, unassigned) [Z24-1]",3.5 nM,3.7 nM,55.4 nM,
"O=C(c1ccc(Oc2ccccc2)cc1Cl)c1c[nH]c2ncc3c(c12)N[C@]1(CC[C@H](O)C1)C(=O)N3 (single isomer, unassigned) [Z24-2]",5 nM,4.7 nM,63.1 nM,
"COC1CCC2(C1)Nc1c(cnc3[nH]cc(C(=O)c4ccc(Oc5ccccc5)cc4Cl)c13)NC2=O (single isomer, unassigned) [Z25-1, 9′-(2-chloro-4-phenoxybenzoyl)-3-methoxy-4′,7′-dihydrospiro[cyclopentane-1,2′-pyrrolo[3′,2′:5,6]pyrido[3,4-b]pyrazin]-3′(1′H)-one]",32 nM,19.8 nM,,101 nM
"COC[C@]1(C)Nc2c(cnc3[nH]cc(C(=O)c4ccc(Oc5cc(C)nc(Cl)c5)cc4Cl)c23)NC1=O [Z135, (S)-9-(2-chloro-4-((2-chloro-6-methylpyridin-4-yl)oxy)benzoyl)-2-(methoxymethyl)-2-methyl-1,2,4,7-tetrahydro-3H-pyrrolo[3′,2′:5,6]pyrido[3,4-b]pyrazin-3-one]",58.9 nM,88.8 nM,,
COCCN1C(=O)[C@](C)(COC)Nc2c1cnc1[nH]cc(C(=O)c3ccc(Oc4ccccc4)cc3Cl)c21 [Z142],35.2 nM,19.7 nM,,
"[2H]C([2H])([2H])OC[C@]1(C)Nc2c(cnc3[nH]cc(C(=O)c4ccc(Cn5cccn5)cc4Cl)c23)NC1=O [Z170, (S)-9-(4-((1H-pyrazol-1-yl)methyl)-2-chlorobenzoyl)-2-((methoxy-d3)methyl)-2-methyl-1,2,4,7-tetrahydro-3H-pyrrolo[3′,2′:5,6]pyrido[3,4-b]pyrazin-3-one]",28.4 nM,36.5 nM,,
"[2H]C([2H])([2H])OC[C@]1(C)Nc2c(cnc3[nH]cc(C(=O)c4ccc(Cn5ccc(C)n5)cc4Cl)c23)NC1=O [Z174, (S)-9-(2-chloro-4-((3-methyl-1H-pyrazol-1-yl)methyl)benzoyl)-2-((methoxy-d3)methyl)-2-methyl-1,2,4,7-tetrahydro-3H-pyrrolo[3′,2′:5,6]pyrido[3,4-b]pyrazin-3-one]",76.6 nM,115 nM,,
"[2H]C([2H])([2H])OC[C@]1(C)Nc2c(cnc3[nH]cc(C(=O)c4ccc(Cn5nccc5C)cc4Cl)c23)NC1=O [Z175, (S)-9-(2-chloro-4-((5-methyl-1H-pyrazol-1-yl)methyl)benzoyl)-2-((methoxy-d3)methyl)-2-methyl-1,2,4,7-tetrahydro-3H-pyrrolo[3′,2′:5,6]pyrido[3,4-b]pyrazin-3-one]",74.4 nM,76.5 nM,,
[2H]C([2H])([2H])Oc1cccc(F)c1Oc1ccc(C(=O)c2c[nH]c3ncc4c(c23)N[C@@](C)(COC)C(=O)N4)c(Cl)c1 [Z187],,,,41.3 nM
"COC[C@]1(C)Nc2c(cnc3[nH]cc(C(=O)c4ccc(Oc5cc(C)cc(C)n5)cc4F)c23)NC1=O [Z189-1, (S)-9-(4-((4,6-dimethylpyridin-2-yl)oxy)-2-fluorobenzoyl)-2-(methoxymethyl)-2-methyl-1,2,4,7-tetrahydro-3H-pyrrolo[3′,2′:5,6]pyrido[3,4-b]pyrazin-3-one]",50.4 nM,60.3 nM,,
"[2H]C([2H])([2H])N1C(=O)[C@](C)(COC)Nc2c1cnc1[nH]cc(C(=O)c3ccc(Oc4ccccc4)cc3Cl)c21 [Z190, (S)-9-(2-chloro-4-phenoxybenzoyl)-2-(methoxymethyl)-2-methyl-4-(methyl-d3)-1,2,4,7-tetrahydro-3H-pyrrolo[3′,2′:5,6]pyrido[3,4-b]pyrazin-3-one]",16.3 nM,20.1 nM,,
"[2H]C([2H])([2H])OC[C@]1(C)Nc2c(cnc3[nH]cc(C(=O)c4ccc(Oc5ccccc5)cc4Cl)c23)N(C([2H])([2H])[2H])C1=O [Z193, (S)-9-(2-chloro-4-phenoxybenzoyl)-2-((methoxy-d3)methyl)-2-methyl-4-(methyl-d3)-1,2,4,7-tetrahydro-3H-pyrrolo[3′,2′:5,6]pyrido[3,4-b]pyrazin-3-one]",19.1 nM,21.9 nM,,
"COC[C@]1(C)Nc2c(cnc3[nH]cc(C(=O)c4ccc(OC)c(F)c4Cl)c23)NC1=O [Z194, (S)-9-(2-chloro-3-fluoro-4-methoxybenzoyl)-2-(methoxymethyl)-2-methyl-1,2,4,7-tetrahydro-3H-pyrrolo[3′,2′:5,6]pyrido[3,4-b]pyrazin-3-one]",47.3 nM,77.4 nM,,
"COC[C@]1(C)Nc2c(cnc3[nH]cc(C(=O)c4c(F)cccc4Cl)c23)NC1=O [Z196, (S)-9-(2-chloro-6-fluorobenzoyl)-2-(methoxymethyl)-2-methyl-1,2,4,7-tetrahydro-3H-pyrrolo[3′,2′:5,6]pyrido[3,4-b]pyrazin-3-one]",26.4 nM,25.8 nM,,
"CC1(C)COc2cnc3[nH]cc(C(=O)c4ccccc4Cl)c3c2N1 [Z198, (2-chlorophenyl)(2,2-dimethyl-1,2,3,7-tetrahydropyrrolo[3′,2′:5,6]pyrido[3,4-b][1,4]oxazin-9-yl)methanone]",17.4 nM,15.1 nM,,
"COC[C@]1(C)Nc2c(cnc3[nH]cc(C(=O)c4ccccc4Cl)c23)N=C1SC [Z199, (S)-(2-chlorophenyl)(2-(methoxymethyl)-2-methyl-3-(methylthio)-2,7-dihydro-1H-pyrrolo[3′,2′:5,6]pyrido[3,4-b]pyrazin-9-yl)methanone]",42.6 nM,23.2 nM,,
"COC[C@]1(C)Nc2c(cnc3[nH]cc(C(=O)c4ccccc4Cl)c23)N=C1OC [Z200, (S)-(2-chlorophenyl)(3-methoxy-2-(methoxymethyl)-2-methyl-2,7-dihydro-1H-pyrrolo[3′,2′:5,6]pyrido[3,4-b]pyrazin-9-yl)methanone]",18.8 nM,9.9 nM,,
"COC[C@]1(C)Nc2c(cnc3[nH]cc(C(=O)c4ccc(Oc5ccccc5)cc4Cl)c23)N=C1SC [Z201, (S)-(2-chloro-4-phenoxyphenyl)(2-(methoxymethyl)-2-methyl-3-(methylthio)-2,7-dihydro-1H-pyrrolo[3′,2′:5,6]pyrido[3,4-b]pyrazin-9-yl)methanone]",122 nM,215 nM,,
"COC[C@]1(C)Nc2c(cnc3[nH]cc(C(=O)c4ccc(Oc5ccccc5)cc4Cl)c23)NC1=S [Z202, (S)-(2-chloro-4-phenoxyphenyl)(2-(methoxymethyl)-2-methyl-3-thioxo-2,3,4,7-tetrahydro-1H-pyrrolo[3′,2′:5,6]pyrido[3,4-b]pyrazin-9-yl)methanone]",23.8 nM,27.8 nM,,
"CCSC1=Nc2cnc3[nH]cc(C(=O)c4ccc(Oc5ccccc5)cc4Cl)c3c2N[C@@]1(C)COC [Z203, (S)-(2-chloro-4-phenoxyphenyl)(3-(ethylthio)-2-(methoxymethyl)-2-methyl-2,7-dihydro-1H-pyrrolo[3′,2′:5,6]pyrido[3,4-b]pyrazin-9-yl)methanone]",75.1 nM,142 nM,,
